# Test results as given in patent US12264204B2, “Peptide for improving memory and preventing or alleviating cognitive dysfunction, composition comprising the same, and method for producing the same” (NATURESENSE CO., LTD., priority 2019, dated 2025).
# Where no end group is shown, it is not given here.
# Test system: Sprague-Dawley rats
# Experiment: Delayed alternation test (T-maze) for cognitive function improvement
# Assay type: in vivo, rat
# Conditions: oral, 100 mg/ml solution; for effect of improving cognitive function and memory in the early stage of administration: delay of 5 seconds, early stage of 9-day training; for effect of improving cognitive function and memory (T-maze performance): delay of 5 seconds between trials, 9 days training
# Procedure: Experimental animals were white male Sprague-Dawley rats (140 to 180 g, Daehan Biolink Co., Ltd.). These rats were housed in cages (4 rats per cage) in a constant environment (temperature: 25±1° C., and relative humidity: 60±10%) for one week and allowed to access water ad libitum. At this time, the feed was fed in a limited manner so that 80% of the body weight was kept. In this experiment, a total of 50 rats were used. The rats were adapted to the maze for 5 minutes a day for 3 days before training.
# In the first trial, the animals were adapted to the start arm. The first trial is a “forced-choice trial”, in which one arm was blocked with the door and when the animal entered the other arm, the rear was blocked with the door. The animal was considered as entering the arm when all four paws passed through the entrance. The animal was allowed to eat feed in the corresponding arm for 60 seconds. The next trials were “free-choice trials”, in which the animal was free to choose the direction of the arm (left or right) starting from the start arm. The animal was made to be able to eat food as a reward only when it entered the arm that entered in the previous trial and the opposite arm.
# The trials were performed with delays of 5 seconds and 20 seconds, and the cut-off time of each trial was set to 60 seconds. The number of times the animal entered the forced-choice arm and the time taken to enter the arm were measured. The same procedure was performed for 9 days with 10 trials per day, followed by assessment.
# The silk peptides NF1, NF2 and TF1 to TF9 were prepared into solutions, each containing 100 mg/ml of each peptide, and were administered orally. All the samples were dissolved in distilled water and administered orally.
Substance,effect of improving cognitive function and memory in the early stage of administration,effect of improving cognitive function and memory (T-maze performance)
Ala-Gly-Gly-Ala (AGGA; printed: Ala-Gly-Gly-Ala) [Peptide P4-1],significantly increased effect of improving cognitive function and memory in the early stage of administration,
Ile-Gly-Ala-Tyr (IGAY; printed: Ile-Gly-Ala-Tyr) [Peptide P2-3],,relatively low
Ile-Gly-Gln-Gly (IGQG; printed: Ile-Gly-Gln-Gly) [Peptide P2-4],,relatively low
Ile-Gly-Tyr-Val (IGYV; printed: Ile-Gly-Tyr-Val) [Peptide P2-1],,relatively low
Ile-Gly-Val-Ala (IGVA; printed: Ile-Gly-Val-Ala) [Peptide P2-2],,relatively better
Ile-Gly-Val-Ala-Gly (IGVAG; printed: Ile-Gly-Val-Ala-Gly) [Peptide F3],"high activity of improving cognitive function and memory in an early stage, compared to P2-2","high effect of improving cognitive function and memory, compared to P2-2"
Ile-Gly-Val-Ala-Thr (IGVAT; printed: Ile-Gly-Val-Ala-Thr) [Peptide F1],"high activity of improving cognitive function and memory in an early stage, compared to P2-2","high effect of improving cognitive function and memory, compared to P2-2"
Ile-Gly-Val-Ala-Tyr (IGVAY; printed: Ile-Gly-Val-Ala-Tyr) [Peptide F2],"high activity of improving cognitive function and memory in an early stage, compared to P2-2","high effect of improving cognitive function and memory, compared to P2-2"
Tyr-Gly-Ala-Ala (YGAA; printed: Tyr-Gly-Ala-Ala) [Peptide P1-3],,increased effect of improving cognitive function and memory
Tyr-Gly-Gly-Ala (YGGA; printed: Tyr-Gly-Gly-Ala) [Peptide P1-2],,increased effect of improving cognitive function and memory
Tyr-Gly-Gly-Tyr (YGGY; printed: Tyr-Gly-Gly-Tyr) [Peptide P4-2],,increased effect of improving cognitive function and memory
Tyr-Gly-Ile-Ala (YGIA; printed: Tyr-Gly-Ile-Ala) [Peptide P1-6],significantly increased effect of improving cognitive function and memory in the early stage of administration,increased effect of improving cognitive function and memory
Tyr-Gly-Val-Ile (YGVI; printed: Tyr-Gly-Val-Ile) [Peptide P1-5],,increased effect of improving cognitive function and memory
YGGYGI [Peptide P5-1],excellent activity of improving cognitive function and memory in the early stage,clearly better effect of improving cognitive function and memory than P4-2
